ChEMBL document CHEMBL4339248, “Secondary Metabolites Produced by Combined Culture of Penicillium crustosum and a Xylaria sp” (J Nat Prod, 2019)
pIC50: −log10 of the molar value. ≈ marks a conversion by molar mass, not a printed value. Calls of active or inactive are those of the source. The calls are words filed in the database; no cut-off is given here.

Columns and labels:
HL-60 = experiment: Cytotoxicity in human HL60 cells assessed as reduction in cel viability incubated for 24 or 72 hrs by SRB or MTT assay; format: functional, cell-based
L02 = experiment: Cytotoxicity in human L02 cells assessed as reduction in cel viability incubated for 24 or 72 hrs by SRB or MTT assay; format: cell-based
Bel-7402 = experiment: Cytotoxicity in human Bel7402 cells assessed as reduction in cel viability incubated for 24 or 72 hrs by SRB or MTT assay; format: functional, cell-based
HeLa = experiment: Cytotoxicity in human HeLa cells assessed as reduction in cel viability incubated for 24 or 72 hrs by SRB or MTT assay; format: functional, cell-based
Xylaria sp. = experiment: Antimicrobial activity against Xylaria sp. HDN13-249 assessed as inhibition of microbial growth at 25 ug/disk by disk diffusion test; format: functional
PC-3 = experiment: Cytotoxicity in human PC3 cells assessed as reduction in cel viability incubated for 24 or 72 hrs by SRB or MTT assay; format: functional, cell-based
A549 = experiment: Cytotoxicity in human A549 cells assessed as reduction in cel viability incubated for 24 or 72 hrs by SRB or MTT assay; format: functional, cell-based
Penicillium crustosum = experiment: Antimicrobial activity against Penicillium crustosum PRB-2 assessed as inhibition of microbial growth at 25 ug/disk by disk diffusion test; format: functional, organism-based
MDA-MB-231 = experiment: Cytotoxicity in human MDA-MB-231 cells assessed as reduction in cel viability incubated for 24 or 72 hrs by SRB or MTT assay; format: functional, cell-based
K562 = experiment: Cytotoxicity in human K562 cells assessed as reduction in cel viability incubated for 24 or 72 hrs by SRB or MTT assay; format: functional, cell-based
SH-SY5Y = experiment: Cytotoxicity in human SH-SY5Y cells assessed as reduction in cel viability incubated for 24 or 72 hrs by SRB or MTT assay; format: functional, cell-based
[1] = Cytotoxicity in human HO8910 cells assessed as reduction in cel viability incubated for 24 or 72 hrs by SRB or MTT assay; format: functional, cell-based; conditions: HO-8910
HCT-116 = experiment: Cytotoxicity in human HCT116 cells assessed as reduction in cel viability incubated for 24 or 72 hrs by SRB or MTT assay; format: functional, cell-based
MGC-803 = experiment: Cytotoxicity in human MGC803 cells assessed as reduction in cel viability incubated for 24 or 72 hrs by SRB or MTT assay; format: functional, cell-based
Vibrio parahaemolyticus = experiment: Antimicrobial activity against Vibrio parahaemolyticus by BSAC standardized disc susceptibility testing method; format: functional
Mycolicibacterium phlei = experiment: Antimicrobial activity against Mycobacterium phlei by BSAC standardized disc susceptibility testing method; format: functional
Bacillus subtilis = experiment: Antimicrobial activity against Bacillus subtilis by BSAC standardized disc susceptibility testing method; format: functional

| SMILES | pIC50 (HL-60) | pIC50 (L02) | pIC50 (Bel-7402) | pIC50 (HeLa) | growth inhibition (GI) (Xylaria sp.) | pIC50 (PC-3) | pIC50 (A549) | growth inhibition (GI) (Penicillium crustosum) | pIC50 (MDA-MB-231) | pIC50 (K562) | pIC50 (SH-SY5Y) | pIC50 [1] | pIC50 (HCT-116) | pIC50 (MGC-803) | MIC (Vibrio parahaemolyticus) [µM] | MIC (Mycolicibacterium phlei) [µM] | MIC (Bacillus subtilis) [µM] |
| --- | --- | --- | --- | --- | --- | --- | --- | --- | --- | --- | --- | --- | --- | --- | --- | --- | --- |
| CCCCC[C@@H](CCCCCCCCCCCc1cc(O)cc(O)c1C(=O)O)OS(=O)(=O)O | < 4.52 | < 4.52 | < 4.52 | < 4.52 | inactive | < 4.52 | < 4.52 | inactive | < 4.52 | < 4.52 | < 4.52 | < 4.52 | < 4.52 | < 4.52 | – | – | – |
| O=C(O)c1cn(C2CC2)c2cc(N3CCNCC3)c(F)cc2c1=O [CIPROFLOXACIN] | – | – | – | – | – | – | – | – | – | – | – | – | – | – | 12.5 (≈ 4.14 µg/mL) | 1.56 (≈ 0.517 µg/mL) | 1.56 (≈ 0.517 µg/mL) |
| CCCCC[C@H](O)CCCCCCCCCCCc1cc(O)cc(O)c1 | < 4.52 | < 4.52 | < 4.52 | < 4.52 | inactive | < 4.52 | < 4.52 | inactive | < 4.52 | < 4.52 | < 4.52 | < 4.52 | < 4.52 | < 4.52 | > 200 | 25 (≈ 9.11 µg/mL) | > 200 |
| CCCCC[C@H](O)CCCCCCCCCCCc1cc(O)cc(O)c1C(=O)O | < 4.52 | < 4.52 | < 4.52 | < 4.52 | inactive | < 4.52 | < 4.52 | inactive | < 4.52 | < 4.52 | < 4.52 | < 4.52 | < 4.52 | < 4.52 | 12.5 (≈ 5.11 µg/mL) | 6.25 (≈ 2.55 µg/mL) | > 200 |
